Reference: patent publication US10457691B2, “Macrocyclic kinase inhibitors and uses thereof” (Dana-Farber Cancer Institute, Inc., priority 2014, dated 2019)

Assays:
Type in all cases: biochemical
[1] = target: MARK4 (Homo sapiens, UniProt Q96L34); experiment: Protein kinase assay ([γ-32P] ATP), MARK4; conditions: read-out: Activity of the protein kinase when treated with compound I-1 (% control)
Description: (§1) In another set of experiments, the activities of the compounds described herein against various protein kinases were determined according to the methods reported in Hastie et al., Nature Protocols, 2006, 1, 968-971.
(§2) Enzyme dilution buffer. This buffer consisted of 50 mM Tris-HCl, pH 7.5, 0.1 mM EGTA, 1 mg ml^−1 bovine serum albumin and 0.1% (vol/vol) 2-mercaptoethanol.
(§3) 10× concentrated assay buffer. An assay buffer of 500 mM Tris-HCl, pH 7.5, 1 mM EGTA, and 100 mM magnesium acetate was used for assay of a wide variety of protein kinases. In some experiments, other cofactors were included (e.g., calcium ions and calmodulin were included for assay of calcium-calmodulindependent protein kinases).
(§4) 1 mM [γ-^32P] ATP. The specific activity of the [γ-^32P] ATP solution was 1×10^5 to 1×10^6 c.p.m. per nmol depending on what was needed to produce an optimal signal/noise ratio. […] To measure the concentration of ATP, a sample of such a stock solution was diluted to 20 μM, and the absorbance of the diluted sample was measured at 259 nm. The absorbance of a 20-μM stock solution of ATP at 259 nm was about 0.31. […] ATP to produce a radioactivity of 1×10^5 to 1×10^6 c.p.m. per nmol. […]
(§5) 13) Measure radioactivity in the samples by Cerenkov counting (e.g., without liquid scintillation fluid) in a liquid scintillation counter using a “^32P program”. […]

[2] = target: MARK3 (Homo sapiens, UniProt P27448); experiment: Protein kinase assay ([γ-32P] ATP), MARK3; conditions: read-out: Activity of the protein kinase when treated with compound I-1 (% control)
Description: as §1, §2, §3, §4, §5

[3] = target: SmMLCK (Homo sapiens, UniProt Q15746); experiment: Protein kinase assay ([γ-32P] ATP), SmMLCK; conditions: read-out: Activity of the protein kinase when treated with compound I-1 (% control)
Description: as §1, §2, §3, §4, §5

[4] = target: EPH-A2 (Homo sapiens, UniProt P29317); experiment: Protein kinase assay ([γ-32P] ATP), EPH-A2; conditions: read-out: Activity of the protein kinase when treated with compound I-1 (% control)
Description: as §1, §2, §3, §4, §5

[5] = test system: PHK; experiment: Protein kinase assay ([γ-32P] ATP), PHK
Description: as §1, §2, §3, §4, §5

[6] = target: IKKb (Homo sapiens, UniProt O14920); experiment: Protein kinase assay ([γ-32P] ATP), IKKb; conditions: read-out: Activity of the protein kinase when treated with compound I-1 (% control)
Description: as §1, §2, §3, §4, §5

[7] = target: RSK1 (Homo sapiens, UniProt Q15418); experiment: Protein kinase assay ([γ-32P] ATP), RSK1; conditions: read-out: Activity of the protein kinase when treated with compound I-1 (% control)
Description: as §1, §2, §3, §4, §5

[8] = target: HIPK1 (Homo sapiens, UniProt Q86Z02); experiment: Protein kinase assay ([γ-32P] ATP), HIPK1; conditions: read-out: Activity of the protein kinase when treated with compound I-1 (% control)
Description: as §1, §2, §3, §4, §5

[9] = target: CAMKKb (Homo sapiens, UniProt Q96RR4); experiment: Protein kinase assay ([γ-32P] ATP), CAMKKb; conditions: read-out: Activity of the protein kinase when treated with compound I-1 (% control)
Description: as §1, §2, §3, §4, §5

[10] = target: WNK1 (Homo sapiens, UniProt Q9H4A3); experiment: Protein kinase assay ([γ-32P] ATP), WNK1; conditions: read-out: Activity of the protein kinase when treated with compound I-1 (% control)
Description: as §1, §2, §3, §4, §5

[11] = 0.1 μM of compound I-1, DMSO control = 100%
[12] = 1 μM of compound I-1, DMSO control = 100%

SmMLCK, sequence (Q15746 923-1914): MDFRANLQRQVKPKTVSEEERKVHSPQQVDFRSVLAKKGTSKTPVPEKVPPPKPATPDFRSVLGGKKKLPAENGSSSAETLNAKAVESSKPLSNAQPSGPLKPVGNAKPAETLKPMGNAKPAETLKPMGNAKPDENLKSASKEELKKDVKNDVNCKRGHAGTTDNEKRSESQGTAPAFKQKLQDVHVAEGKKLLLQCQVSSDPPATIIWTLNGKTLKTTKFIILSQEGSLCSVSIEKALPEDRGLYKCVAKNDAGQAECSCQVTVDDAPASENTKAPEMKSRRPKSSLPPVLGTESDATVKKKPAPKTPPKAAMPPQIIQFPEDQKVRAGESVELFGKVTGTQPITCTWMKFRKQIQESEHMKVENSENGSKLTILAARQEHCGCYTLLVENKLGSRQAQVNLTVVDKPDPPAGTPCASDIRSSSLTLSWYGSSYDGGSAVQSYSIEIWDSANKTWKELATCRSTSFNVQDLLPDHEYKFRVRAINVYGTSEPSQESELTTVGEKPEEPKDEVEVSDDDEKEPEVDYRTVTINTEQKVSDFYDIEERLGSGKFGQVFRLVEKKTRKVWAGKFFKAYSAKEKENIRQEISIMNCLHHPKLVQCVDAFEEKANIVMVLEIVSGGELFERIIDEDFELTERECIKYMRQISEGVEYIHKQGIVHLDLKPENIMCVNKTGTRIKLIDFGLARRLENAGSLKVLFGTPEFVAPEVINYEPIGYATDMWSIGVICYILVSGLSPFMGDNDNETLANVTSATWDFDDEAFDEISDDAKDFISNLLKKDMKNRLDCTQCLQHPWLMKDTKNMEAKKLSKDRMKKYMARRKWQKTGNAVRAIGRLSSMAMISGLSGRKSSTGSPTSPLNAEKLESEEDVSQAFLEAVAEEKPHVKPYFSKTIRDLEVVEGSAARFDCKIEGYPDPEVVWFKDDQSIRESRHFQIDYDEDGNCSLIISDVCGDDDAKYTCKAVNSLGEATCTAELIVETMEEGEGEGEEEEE
MARK4, sequence (Q96L34 whole entry): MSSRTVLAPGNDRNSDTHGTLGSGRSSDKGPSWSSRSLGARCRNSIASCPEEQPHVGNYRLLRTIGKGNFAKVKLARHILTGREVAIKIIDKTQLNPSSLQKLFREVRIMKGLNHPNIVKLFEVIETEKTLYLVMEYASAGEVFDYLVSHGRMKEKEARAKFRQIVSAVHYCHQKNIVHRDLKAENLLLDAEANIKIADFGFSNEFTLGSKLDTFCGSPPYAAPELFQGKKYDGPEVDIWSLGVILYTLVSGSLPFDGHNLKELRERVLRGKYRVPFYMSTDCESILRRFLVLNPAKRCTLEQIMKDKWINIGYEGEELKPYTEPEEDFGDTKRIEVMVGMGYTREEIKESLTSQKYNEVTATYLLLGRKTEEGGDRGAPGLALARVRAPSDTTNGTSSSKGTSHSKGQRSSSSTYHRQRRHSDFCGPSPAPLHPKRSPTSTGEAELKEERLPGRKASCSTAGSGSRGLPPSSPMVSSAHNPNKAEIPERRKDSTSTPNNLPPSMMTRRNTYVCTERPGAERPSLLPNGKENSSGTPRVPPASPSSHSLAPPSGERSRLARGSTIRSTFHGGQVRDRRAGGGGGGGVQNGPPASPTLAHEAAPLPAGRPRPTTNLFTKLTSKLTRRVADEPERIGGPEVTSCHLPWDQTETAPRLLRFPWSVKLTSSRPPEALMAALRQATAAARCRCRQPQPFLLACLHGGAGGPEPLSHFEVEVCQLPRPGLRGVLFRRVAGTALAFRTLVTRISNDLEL
RSK1, sequence (Q15418 whole entry, species assumed): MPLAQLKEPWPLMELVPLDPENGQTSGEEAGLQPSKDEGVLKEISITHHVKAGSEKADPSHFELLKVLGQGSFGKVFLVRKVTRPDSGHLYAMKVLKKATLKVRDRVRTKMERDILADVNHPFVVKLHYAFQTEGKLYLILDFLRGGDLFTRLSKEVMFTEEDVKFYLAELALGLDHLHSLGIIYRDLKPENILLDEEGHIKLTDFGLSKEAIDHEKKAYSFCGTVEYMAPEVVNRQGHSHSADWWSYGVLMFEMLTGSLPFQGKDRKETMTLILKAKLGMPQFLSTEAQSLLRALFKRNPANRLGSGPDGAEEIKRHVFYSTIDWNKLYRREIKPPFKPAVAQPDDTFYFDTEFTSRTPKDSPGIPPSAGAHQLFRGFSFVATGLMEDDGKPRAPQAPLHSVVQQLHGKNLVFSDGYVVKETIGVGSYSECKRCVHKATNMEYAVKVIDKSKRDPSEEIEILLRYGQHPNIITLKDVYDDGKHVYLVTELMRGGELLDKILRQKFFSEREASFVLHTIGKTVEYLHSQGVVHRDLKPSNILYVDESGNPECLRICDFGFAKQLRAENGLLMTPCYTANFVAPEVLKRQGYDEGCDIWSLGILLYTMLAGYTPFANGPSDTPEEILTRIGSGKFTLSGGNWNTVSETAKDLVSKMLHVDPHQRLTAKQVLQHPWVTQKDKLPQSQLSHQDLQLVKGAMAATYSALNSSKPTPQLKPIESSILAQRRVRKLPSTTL
EPH-A2, sequence (P29317 24-976): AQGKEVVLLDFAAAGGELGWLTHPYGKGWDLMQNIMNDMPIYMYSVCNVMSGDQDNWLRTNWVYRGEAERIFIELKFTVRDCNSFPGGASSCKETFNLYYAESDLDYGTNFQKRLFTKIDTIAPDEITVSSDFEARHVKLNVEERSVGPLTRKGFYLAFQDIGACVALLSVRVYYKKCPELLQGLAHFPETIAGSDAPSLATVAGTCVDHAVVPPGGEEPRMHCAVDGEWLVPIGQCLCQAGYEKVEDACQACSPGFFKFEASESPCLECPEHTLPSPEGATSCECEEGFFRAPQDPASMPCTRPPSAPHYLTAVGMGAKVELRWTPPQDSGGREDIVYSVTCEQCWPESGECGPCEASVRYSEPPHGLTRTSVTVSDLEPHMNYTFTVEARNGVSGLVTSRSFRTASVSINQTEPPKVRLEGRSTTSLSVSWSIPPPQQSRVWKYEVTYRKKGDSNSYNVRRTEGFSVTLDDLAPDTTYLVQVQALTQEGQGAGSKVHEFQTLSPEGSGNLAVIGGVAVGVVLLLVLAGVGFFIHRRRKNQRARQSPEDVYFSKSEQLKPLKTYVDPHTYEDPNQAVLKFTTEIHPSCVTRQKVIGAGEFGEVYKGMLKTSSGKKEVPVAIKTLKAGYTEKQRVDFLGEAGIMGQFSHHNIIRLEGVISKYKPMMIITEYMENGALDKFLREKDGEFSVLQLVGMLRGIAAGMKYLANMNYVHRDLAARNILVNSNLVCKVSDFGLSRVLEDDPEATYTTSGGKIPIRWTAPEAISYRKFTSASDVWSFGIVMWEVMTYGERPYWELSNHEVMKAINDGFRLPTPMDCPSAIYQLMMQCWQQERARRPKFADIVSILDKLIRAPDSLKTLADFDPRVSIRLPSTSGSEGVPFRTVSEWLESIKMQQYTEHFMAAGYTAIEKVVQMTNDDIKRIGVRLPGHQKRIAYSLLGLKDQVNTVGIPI
MARK3, sequence (P27448 whole entry): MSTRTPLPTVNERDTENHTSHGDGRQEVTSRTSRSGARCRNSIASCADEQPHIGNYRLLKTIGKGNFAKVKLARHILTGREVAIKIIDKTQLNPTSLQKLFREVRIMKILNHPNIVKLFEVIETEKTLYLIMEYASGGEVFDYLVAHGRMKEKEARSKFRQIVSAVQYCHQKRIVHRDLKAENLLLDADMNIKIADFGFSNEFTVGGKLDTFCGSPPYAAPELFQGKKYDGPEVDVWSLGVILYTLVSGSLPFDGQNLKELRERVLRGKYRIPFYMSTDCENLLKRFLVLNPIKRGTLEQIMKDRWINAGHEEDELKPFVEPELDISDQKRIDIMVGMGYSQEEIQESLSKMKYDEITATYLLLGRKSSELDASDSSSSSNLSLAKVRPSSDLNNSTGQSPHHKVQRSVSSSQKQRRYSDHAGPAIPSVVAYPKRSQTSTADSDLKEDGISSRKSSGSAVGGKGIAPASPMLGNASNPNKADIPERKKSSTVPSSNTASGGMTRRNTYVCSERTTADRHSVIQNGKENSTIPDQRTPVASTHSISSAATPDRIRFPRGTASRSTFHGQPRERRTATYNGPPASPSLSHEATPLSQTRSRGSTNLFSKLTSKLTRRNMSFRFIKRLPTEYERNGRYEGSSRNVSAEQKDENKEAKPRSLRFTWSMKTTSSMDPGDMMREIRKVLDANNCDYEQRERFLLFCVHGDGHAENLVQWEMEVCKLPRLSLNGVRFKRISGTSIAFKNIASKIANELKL
CAMKKb, sequence (Q96RR4 whole entry): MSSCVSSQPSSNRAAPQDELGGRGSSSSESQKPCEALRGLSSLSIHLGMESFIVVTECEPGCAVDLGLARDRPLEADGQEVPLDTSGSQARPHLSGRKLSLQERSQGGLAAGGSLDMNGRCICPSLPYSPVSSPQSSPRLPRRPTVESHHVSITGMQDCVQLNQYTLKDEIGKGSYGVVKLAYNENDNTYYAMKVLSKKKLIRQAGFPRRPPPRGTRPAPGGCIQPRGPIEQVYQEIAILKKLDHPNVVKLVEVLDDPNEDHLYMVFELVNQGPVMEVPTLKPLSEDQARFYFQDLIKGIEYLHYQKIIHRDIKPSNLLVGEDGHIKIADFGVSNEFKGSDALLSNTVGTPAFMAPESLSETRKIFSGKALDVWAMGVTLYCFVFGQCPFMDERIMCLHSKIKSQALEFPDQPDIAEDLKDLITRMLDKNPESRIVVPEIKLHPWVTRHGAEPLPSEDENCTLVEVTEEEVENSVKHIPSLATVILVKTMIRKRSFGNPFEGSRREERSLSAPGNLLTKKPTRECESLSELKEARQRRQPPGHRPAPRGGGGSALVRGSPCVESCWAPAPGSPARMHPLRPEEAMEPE

Cc1cccc(C)c1NC(=O)N1C/C=C\COc2cccc(c2)Nc2cc1ncn2 [Compound I-1]
remaining activity at 0.1 µM [1, 11]: 103%
remaining activity at 1 µM [1, 12]: 81%
remaining activity at 0.1 µM [2, 11]: 90%
remaining activity at 1 µM [2, 12]: 67%
remaining activity at 0.1 µM [3, 11]: 91%
remaining activity at 1 µM [3, 12]: 85%
remaining activity at 0.1 µM [4, 11]: 11%
remaining activity at 1 µM [4, 12]: 5%
Activity of the protein kinase when treated with compound I-1 (% control) [5, 11]: 88 % control
Activity of the protein kinase when treated with compound I-1 (% control) [5, 12]: 100 % control
remaining activity at 0.1 µM [6, 11]: 103%
remaining activity at 1 µM [6, 12]: 77%
remaining activity at 0.1 µM [7, 11]: 98%
remaining activity at 1 µM [7, 12]: 99%
remaining activity at 0.1 µM [8, 11]: 99%
remaining activity at 1 µM [8, 12]: 82%
remaining activity at 0.1 µM [9, 11]: 101%
remaining activity at 1 µM [9, 12]: 88%
remaining activity at 0.1 µM [10, 11]: 102%
remaining activity at 1 µM [10, 12]: 85%
